# Test system: Wistar male rats subjected to ketosis under starvation for 48 hours
# Experiment: Effects at oral administration in rats subjected to ketosis under starvation
# Type: in vivo, rat
# Settings: oral (into the stomach), 1 or 2 mmol/kg-body weight, blood from tail vein up to 240 minutes after administration
# Description: Wistar male rats of 6 to 8 week age were subjected to ketosis under starvation for 48 hours and then used for experiment. Each of glutamine, glutamic acid, valine, isoleucine and serine was dissolved in water for injection and administered into the stomach using a gastroconductor to give a dose of 1 or 2 mmol/kg-body weight. As controls, the same quantity of water for injection was similarly administered, or each of glucose and alanine was similarly administered to give a dose of 1 or 2 mmol/kg-body weight.
# Before the administration, and 30, 60, 90, 120, 180 and 240 minutes after the administration, blood was collected from a tail vein and the concentration of glucose in blood and the concentration of 3-hydroxybutyric acid usually measured for diagnosis of ketosis were measured.
# FIGS. 1 to 10 show changes of the concentrations of glucose and 3-hydroxybutyric acid in blood, which are expressed as rates of change from the values before the administration (FIG. 1: water for injection, FIG. 2: 1 mmol/kg of glucose, FIG. 3: 1 mmol/kg of alanine, FIG. 4: 2 mmol/kg of alanine, FIG. 5: 1 mmol/kg of glutamine, FIG. 6: 1 mmol/kg of glutamic acid, FIG. 7: 1 mmol/kg of valine, FIG. 8: 2 mmol/kg of valine, FIG. 9: 2 mmol/kg of isoleucine, FIG. 10: 2 mmol/kg of serine). In the figures, the symbols “-∘-” and “-▴-” correspond to the rates of change of 3-hydroxybutyric acid and glucose, respectively.
# Furthermore, as shown in the figures, the effect on reduction of ketone bodies disappeared within about 4 hours when glucose was used. On the other hand, when glutamine, glutamic acid, valine or isoleucine was used, the period of effecting the reduction of the concentration of ketone bodies was expected to be 24 hours or more, and therefore, they were effective as ketosis-treating agents having long duration of the effect.
SMILES,"concentration of glucose in blood, change from value before administration","concentration of ketone bodies (3-hydroxybutyric acid) in blood, change from value before administration"
CC[C@H](C)[C@H](N)C(=O)O [isoleucine],without largely increasing the concentration of glucose in blood,reduced the concentration of ketone bodies
N[C@@H](CO)C(=O)O [serine],without largely increasing the concentration of glucose in blood,reduced the concentration of ketone bodies
CC(C)[C@H](N)C(=O)O [valine],without largely increasing the concentration of glucose in blood,reduced the concentration of ketone bodies
